Source: patent US6538014B1, “Process for the aggrochemical treatment of rangelands” (Bayer CropScience, Inc., priority 1992, dated 2003)

Columns and labels:
Format in all cases: in vivo
Melanoplus sanguinipes = experiment: Caged grassland treatment, mortality of grasshoppers; settings: for Effectiveness (%) against the grasshopper Melanoplus Sanquinipes, Persistence of Action 7 DAT / Effectiveness (%) against the grasshopper Melanoplus Sanquinipes, Persistence of Action 15 DAT / Effectiveness (%) against the grasshopper Melanoplus Sanquinipes, Persistence of Action 28 DAT: infestation renewed 2 days before
Experimental: A zone of grassland is treated under controlled conditions, using cages to limit the space of movement of the insects. This zone is infested at a rate of 40 grasshoppers (Melanoplus sanguinipes) per m^2. For experimental purposes, the infestation is renewed 2 days before each observation of the effectiveness of the products, without performing a new insecticide treatment. The results are observed by performing mortality measurements (=percentage of grasshoppers killed). A remarkable persistence of action is observed.

Schistocerca gregaria = experiment: Grassland treatment, mortality of locusts; settings: for Effectiveness (%) against the locust (Schistocerca gregaria), Persistence of action 7 DAT / Effectiveness (%) against the locust (Schistocerca gregaria), Persistence of action 14 DAT / Effectiveness (%) against the locust (Schistocerca gregaria), Persistence of action 18 DAT: infestation renewed 2 days before
Source text: (§1) One treats a zone of grassland infested at a rate of 40 locusts (Schistocerca gregaria) per m^2. For experimental purposes, the infestation is renewed 2 days before each effectiveness measurement. The results are observed by performing mortality measurements (=percentage of locusts killed). A remarkable persistence of action is observed.

Chortoicetes terminifera = experiment: Grassland treatment, mortality of locusts; settings: for Effectiveness (%) against the locust Chortoicetes terminifera, Persistence of action 5 DAT / Effectiveness (%) against the locust Chortoicetes terminifera, Persistence of action 10 DAT / Effectiveness (%) against the locust Chortoicetes terminifera, Persistence of action 20 DAT / Effectiveness (%) against the locust Chortoicetes terminifera, Persistence of action 30 DAT: infestation renewed 2 days before
Experimental: as §1, with “A” for “One treats a”, “(Chortoicetes terminifera)” for “(Schistocerca gregaria)”, “m2 is treated, and” for “m^2. For experimental purposes,”

N#Cc1nn(-c2c(Cl)cc(C(F)(F)F)cc2Cl)c(N)c1[S+]([O-])C(F)(F)F (centres unmarked) [Product A, 1-[2,6-dichloro-4-CF3-phenyl)-3-cyano-4-CF3SO-5-NH2-pyrazole]
Effectiveness (%) against the grasshopper Melanoplus Sanquinipes, Immediate Action 1 DAT (Melanoplus sanguinipes; 6.2 g Product A per hectare): 87%
Effectiveness (%) against the grasshopper Melanoplus Sanquinipes, Persistence of Action 7 DAT (Melanoplus sanguinipes; 6.2 g Product A per hectare): 98%
Effectiveness (%) against the grasshopper Melanoplus Sanquinipes, Persistence of Action 15 DAT (Melanoplus sanguinipes; 6.2 g Product A per hectare): 93%
Effectiveness (%) against the grasshopper Melanoplus Sanquinipes, Persistence of Action 28 DAT (Melanoplus sanguinipes; 6.2 g Product A per hectare): 38%
Effectiveness (%) against the grasshopper Melanoplus Sanquinipes, Immediate Action 1 DAT (Melanoplus sanguinipes; 12.5 g Product A per hectare): 93%
Effectiveness (%) against the grasshopper Melanoplus Sanquinipes, Persistence of Action 7 DAT (Melanoplus sanguinipes; 12.5 g Product A per hectare): 100%
Effectiveness (%) against the grasshopper Melanoplus Sanquinipes, Persistence of Action 15 DAT (Melanoplus sanguinipes; 12.5 g Product A per hectare): 100%
Effectiveness (%) against the grasshopper Melanoplus Sanquinipes, Persistence of Action 28 DAT (Melanoplus sanguinipes; 12.5 g Product A per hectare): 69%
Effectiveness (%) against the grasshopper Melanoplus Sanquinipes, Immediate Action 1 DAT (Melanoplus sanguinipes; 25 g Product A per hectare): 98%
Effectiveness (%) against the grasshopper Melanoplus Sanquinipes, Persistence of Action 7 DAT (Melanoplus sanguinipes; 25 g Product A per hectare): 100%
Effectiveness (%) against the grasshopper Melanoplus Sanquinipes, Persistence of Action 15 DAT (Melanoplus sanguinipes; 25 g Product A per hectare): 100%
Effectiveness (%) against the grasshopper Melanoplus Sanquinipes, Persistence of Action 28 DAT (Melanoplus sanguinipes; 25 g Product A per hectare): 93%
Effectiveness (%) against the locust (Schistocerca gregaria), Immediate Action 1 DAT (Schistocerca gregaria; 2.5 g product A per hectare): 58%
Effectiveness (%) against the locust (Schistocerca gregaria), Immediate Action 2 DAT (Schistocerca gregaria; 2.5 g product A per hectare): 72%
Effectiveness (%) against the locust (Schistocerca gregaria), Persistence of action 7 DAT (Schistocerca gregaria; 2.5 g product A per hectare): 88%
Effectiveness (%) against the locust (Schistocerca gregaria), Persistence of action 14 DAT (Schistocerca gregaria; 2.5 g product A per hectare): 72%
Effectiveness (%) against the locust (Schistocerca gregaria), Persistence of action 18 DAT (Schistocerca gregaria; 2.5 g product A per hectare): 56%
Effectiveness (%) against the locust (Schistocerca gregaria), Immediate Action 1 DAT (Schistocerca gregaria; 5 g product A per hectare): 82%
Effectiveness (%) against the locust (Schistocerca gregaria), Immediate Action 2 DAT (Schistocerca gregaria; 5 g product A per hectare): 93%
Effectiveness (%) against the locust (Schistocerca gregaria), Persistence of action 7 DAT (Schistocerca gregaria; 5 g product A per hectare): 100%
Effectiveness (%) against the locust (Schistocerca gregaria), Persistence of action 14 DAT (Schistocerca gregaria; 5 g product A per hectare): 93%
Effectiveness (%) against the locust (Schistocerca gregaria), Persistence of action 18 DAT (Schistocerca gregaria; 5 g product A per hectare): 89%
Effectiveness (%) against the locust (Schistocerca gregaria), Immediate Action 1 DAT (Schistocerca gregaria; 10 g product A per hectare): 96%
Effectiveness (%) against the locust (Schistocerca gregaria), Immediate Action 2 DAT (Schistocerca gregaria; 10 g product A per hectare): 100%
Effectiveness (%) against the locust (Schistocerca gregaria), Persistence of action 7 DAT (Schistocerca gregaria; 10 g product A per hectare): 100%
Effectiveness (%) against the locust (Schistocerca gregaria), Persistence of action 14 DAT (Schistocerca gregaria; 10 g product A per hectare): 98%
Effectiveness (%) against the locust (Schistocerca gregaria), Persistence of action 18 DAT (Schistocerca gregaria; 10 g product A per hectare): 92%
Effectiveness (%) against the locust (Schistocerca gregaria), Immediate Action 1 DAT (Schistocerca gregaria; 20 g product A per hectare): 100%
Effectiveness (%) against the locust (Schistocerca gregaria), Immediate Action 2 DAT (Schistocerca gregaria; 20 g product A per hectare): 100%
Effectiveness (%) against the locust (Schistocerca gregaria), Persistence of action 7 DAT (Schistocerca gregaria; 20 g product A per hectare): 100%
Effectiveness (%) against the locust (Schistocerca gregaria), Persistence of action 14 DAT (Schistocerca gregaria; 20 g product A per hectare): 100%
Effectiveness (%) against the locust (Schistocerca gregaria), Persistence of action 18 DAT (Schistocerca gregaria; 20 g product A per hectare): 98%
Effectiveness (%) against the locust Chortoicetes terminifera, Immediate Action 1 DAT Adults (Chortoicetes terminifera; 3.1 g product A per hectare): 58%
Effectiveness (%) against the locust Chortoicetes terminifera, Immediate Action 1 DAT Nymphs (Chortoicetes terminifera; 3.1 g product A per hectare): 70%
Effectiveness (%) against the locust Chortoicetes terminifera, Persistence of action 5 DAT (Chortoicetes terminifera; 3.1 g product A per hectare): 96%
Effectiveness (%) against the locust Chortoicetes terminifera, Persistence of action 10 DAT (Chortoicetes terminifera; 3.1 g product A per hectare): 90%
Effectiveness (%) against the locust Chortoicetes terminifera, Persistence of action 20 DAT (Chortoicetes terminifera; 3.1 g product A per hectare): 74%
Effectiveness (%) against the locust Chortoicetes terminifera, Persistence of action 30 DAT (Chortoicetes terminifera; 3.1 g product A per hectare): 55%
Effectiveness (%) against the locust Chortoicetes terminifera, Immediate Action 1 DAT Adults (Chortoicetes terminifera; 6.25 g product A per hectare): 93%
Effectiveness (%) against the locust Chortoicetes terminifera, Immediate Action 1 DAT Nymphs (Chortoicetes terminifera; 6.25 g product A per hectare): 100%
Effectiveness (%) against the locust Chortoicetes terminifera, Persistence of action 5 DAT (Chortoicetes terminifera; 6.25 g product A per hectare): 100%
Effectiveness (%) against the locust Chortoicetes terminifera, Persistence of action 10 DAT (Chortoicetes terminifera; 6.25 g product A per hectare): 98%
Effectiveness (%) against the locust Chortoicetes terminifera, Persistence of action 20 DAT (Chortoicetes terminifera; 6.25 g product A per hectare): 93%
Effectiveness (%) against the locust Chortoicetes terminifera, Persistence of action 30 DAT (Chortoicetes terminifera; 6.25 g product A per hectare): 80%
Effectiveness (%) against the locust Chortoicetes terminifera, Immediate Action 1 DAT Adults (Chortoicetes terminifera; 12.5 g product A per hectare): 100%
Effectiveness (%) against the locust Chortoicetes terminifera, Immediate Action 1 DAT Nymphs (Chortoicetes terminifera; 12.5 g product A per hectare): 100%
Effectiveness (%) against the locust Chortoicetes terminifera, Persistence of action 5 DAT (Chortoicetes terminifera; 12.5 g product A per hectare): 100%
Effectiveness (%) against the locust Chortoicetes terminifera, Persistence of action 10 DAT (Chortoicetes terminifera; 12.5 g product A per hectare): 100%
Effectiveness (%) against the locust Chortoicetes terminifera, Persistence of action 20 DAT (Chortoicetes terminifera; 12.5 g product A per hectare): 96%
Effectiveness (%) against the locust Chortoicetes terminifera, Persistence of action 30 DAT (Chortoicetes terminifera; 12.5 g product A per hectare): 82%
Effectiveness (%) against the locust Chortoicetes terminifera, Immediate Action 1 DAT Adults (Chortoicetes terminifera; 25 g product A per hectare): 100%
Effectiveness (%) against the locust Chortoicetes terminifera, Immediate Action 1 DAT Nymphs (Chortoicetes terminifera; 25 g product A per hectare): 100%
Effectiveness (%) against the locust Chortoicetes terminifera, Persistence of action 5 DAT (Chortoicetes terminifera; 25 g product A per hectare): 100%
Effectiveness (%) against the locust Chortoicetes terminifera, Persistence of action 10 DAT (Chortoicetes terminifera; 25 g product A per hectare): 100%
Effectiveness (%) against the locust Chortoicetes terminifera, Persistence of action 20 DAT (Chortoicetes terminifera; 25 g product A per hectare): 100%
Effectiveness (%) against the locust Chortoicetes terminifera, Persistence of action 30 DAT (Chortoicetes terminifera; 25 g product A per hectare): 96%
